Results published in PubChem BioAssay (NCI).
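Growth conditions: 96-well plates. Treatment: test compound, 48 hours, 5 concentrations. Analysis: linear interpolation between bracketing concentrations; unreached endpoints set to highest concentration. TGI: total growth inhibition.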

Key:
Assay in all cases: growth of human tumour cells (NCI), 48 h
T-47D breast = tested on: T-47D breast
UACC-62 melanoma = tested on: UACC-62 melanoma
UACC-257 melanoma = tested on: UACC-257 melanoma
OVCAR-3 ovarian = tested on: OVCAR-3 ovarian
HCT-116 colon = tested on: HCT-116 colon
SNB-75 CNS = tested on: SNB-75 CNS
OVCAR-4 ovarian = tested on: OVCAR-4 ovarian
SK-MEL-5 melanoma = tested on: SK-MEL-5 melanoma
SNB-19 CNS = tested on: SNB-19 CNS
MDA-N = tested on: MDA-N
CAKI-1 renal = tested on: CAKI-1 renal
SR leukemia = tested on: SR leukemia
NCI/ADR-RES ovarian = tested on: NCI/ADR-RES ovarian
MALME-3M melanoma = tested on: MALME-3M melanoma
MDA-MB-435 = tested on: MDA-MB-435
CCRF-CEM leukemia = tested on: CCRF-CEM leukemia
K-562 leukemia = tested on: K-562 leukemia
NCI-H460 lung = tested on: NCI-H460 lung
A498 renal = tested on: A498 renal

Row | SMILES | TGI (T-47D breast) | TGI (UACC-62 melanoma) | TGI (UACC-257 melanoma) | TGI (OVCAR-3 ovarian) | TGI (HCT-116 colon) | TGI (SNB-75 CNS) | TGI (OVCAR-4 ovarian) | TGI (SK-MEL-5 melanoma) | TGI (SNB-19 CNS) | TGI (MDA-N) | TGI (CAKI-1 renal) | TGI (SR leukemia) | TGI (NCI/ADR-RES ovarian) | TGI (MALME-3M melanoma) | TGI (MDA-MB-435) | TGI (CCRF-CEM leukemia) | TGI (K-562 leukemia) | TGI (NCI-H460 lung) | TGI (A498 renal)
1 | Cc1ccc(C2SC(N)=Nc3c2c(C)nn3C(=O)c2ccc(Cl)cc2)cc1 (stereo unspecified) | > 10 µM | > 10 µM | > 10 µM | > 10 µM | > 10 µM | > 10 µM | > 10 µM | > 10 µM | > 10 µM | > 10 µM | > 10 µM | > 10 µM | > 10 µM | > 10 µM | > 10 µM | > 10 µM | > 10 µM | > 10 µM | –
2 | Cc1ccc(N=Nc2c(C)nn(C(=O)CC(=O)Nc3ccc(Cl)cc3)c2C)cc1C | > 100 µM | > 100 µM | > 100 µM | > 100 µM | > 100 µM | 48.7 µM | > 100 µM | > 100 µM | > 100 µM | > 100 µM | > 100 µM | 39.7 µM | > 100 µM | > 100 µM | > 100 µM | 71 µM | – | > 100 µM | > 100 µM
3 | O=C(/C=C/c1ccc(O)cc1)c1cc(O)cc(O)c1 | 33 µM | 24.1 µM | 30.3 µM | 29.4 µM | 26.3 µM | 39.9 µM | 44.6 µM | 28.9 µM | 30.3 µM | 26.7 µM | 43.8 µM | – | > 100 µM | 47.3 µM | 38.9 µM | 35.1 µM | 18.4 µM | – | 28.1 µM
4 | CCCCCCCCCCCCCCCCNc1ccc2c(c1)OCCOCCOCCOCCO2 | 9.2 µM | 11.1 µM | 6.91 µM | 8.75 µM | 11.3 µM | 11.9 µM | 17.6 µM | 5.22 µM | 14.2 µM | 12.8 µM | 13.6 µM | 8.14 µM | 6.4 µM | 13.6 µM | 11.1 µM | 7.62 µM | 10.7 µM | 10.7 µM | –
5 | COc1cc2c(cc1O)-c1c(OC)c(O)cc3c1C(C2)N(C)CC3 (stereo unspecified) | > 100 µM | > 100 µM | > 100 µM | > 100 µM | > 100 µM | > 100 µM | > 100 µM | > 100 µM | > 100 µM | > 100 µM | > 100 µM | > 100 µM | > 100 µM | – | > 100 µM | > 100 µM | – | > 100 µM | > 100 µM
6 | CCN(CC)c1nc(=O)c(C(=O)C(C)(C)C)c(C(C)(C)C)o1 | > 100 µM | > 100 µM | > 100 µM | – | > 100 µM | > 100 µM | > 100 µM | > 100 µM | > 100 µM | > 100 µM | > 100 µM | > 100 µM | > 100 µM | > 100 µM | > 100 µM | > 100 µM | > 100 µM | > 100 µM | > 100 µM
7 | O=C(Nn1c(-c2ccccc2)nc2ccccc2c1=O)c1ccc(O)cc1 | > 100 µM | > 100 µM | > 100 µM | > 100 µM | > 100 µM | > 100 µM | > 100 µM | > 100 µM | > 100 µM | > 100 µM | – | > 100 µM | > 100 µM | > 100 µM | > 100 µM | > 100 µM | > 100 µM | > 100 µM | > 100 µM
8 | COC1CC(n2ccc(=O)[nH]c2=O)OC1CO (stereo unspecified) | > 100 µM | > 100 µM | > 100 µM | > 100 µM | > 100 µM | – | > 100 µM | > 100 µM | > 100 µM | > 100 µM | > 100 µM | > 100 µM | > 100 µM | > 100 µM | > 100 µM | > 100 µM | > 100 µM | > 100 µM | > 100 µM
9 | Cc1cn(C2CC(N=[N+]=[N-])C(CO)O2)c(=O)n(CCCCO)c1=O (stereo unspecified) | > 100 µM | > 100 µM | > 100 µM | > 100 µM | > 100 µM | > 100 µM | > 100 µM | – | > 100 µM | > 100 µM | > 100 µM | – | > 100 µM | > 100 µM | > 100 µM | > 100 µM | > 100 µM | > 100 µM | > 100 µM
10 | CC1C(=O)CC[C@@]2(C)C(=O)CCCC12O (stereo partly specified) | > 100 µM | > 100 µM | > 100 µM | > 100 µM | > 100 µM | – | > 100 µM | > 100 µM | > 100 µM | > 100 µM | > 100 µM | > 100 µM | > 100 µM | > 100 µM | > 100 µM | – | > 100 µM | > 100 µM | > 100 µM
11 | COCN1C(=O)[C@@H]2CCCN2C(=O)c2cc(Cl)ccc21 | > 100 µM | > 100 µM | > 100 µM | – | > 100 µM | > 100 µM | > 100 µM | > 100 µM | > 100 µM | > 100 µM | > 100 µM | > 100 µM | > 100 µM | > 100 µM | > 100 µM | – | > 100 µM | > 100 µM | > 100 µM
12 | COc1ccc2[nH]cc(CN3CCC(CO)(c4ccccc4)CC3)c2c1 | 46.5 µM | 92.2 µM | 37.2 µM | > 100 µM | 35.8 µM | 87.6 µM | > 100 µM | 27.1 µM | > 100 µM | 38.3 µM | – | 52.8 µM | > 100 µM | 62.3 µM | 47.6 µM | 75.1 µM | 43.1 µM | > 100 µM | > 100 µM
13 | COC(=O)C(CCSc1ccccc1)C(=O)OC | > 100 µM | > 100 µM | > 100 µM | > 100 µM | > 100 µM | > 100 µM | > 100 µM | > 100 µM | – | > 100 µM | > 100 µM | > 100 µM | > 100 µM | > 100 µM | > 100 µM | > 100 µM | – | > 100 µM | > 100 µM
14 | CC1=C(c2ccc(C)cc2)NC(=S)C(C)C(c2ccc(C)cc2)=N1 (stereo unspecified) | > 100 µM | > 100 µM | > 100 µM | – | > 100 µM | > 100 µM | > 100 µM | > 100 µM | > 100 µM | > 100 µM | > 100 µM | – | > 100 µM | > 100 µM | > 100 µM | > 100 µM | > 100 µM | > 100 µM | > 100 µM
15 | Cc1ccc(S(=O)(=O)c2ccsc2NC(=O)c2ccccc2)cc1 | > 100 µM | > 100 µM | > 100 µM | > 100 µM | > 100 µM | > 93.3 µM | 73.6 µM | > 100 µM | > 100 µM | > 100 µM | 97.4 µM | > 100 µM | > 100 µM | > 100 µM | > 100 µM | – | > 21.8 µM | > 100 µM | > 100 µM
16 | O=C(Oc1ccc(OC(Oc2ccccc2)c2ccccc2)cc1)c1ccccc1 (stereo unspecified) | > 100 µM | > 31.6 µM | > 31.6 µM | > 31.6 µM | 29.2 µM | > 31.6 µM | > 31.6 µM | > 31.6 µM | > 31.6 µM | > 31.6 µM | – | > 31.6 µM | > 31.6 µM | 18.8 µM | > 31.6 µM | > 31.6 µM | > 31.6 µM | > 100 µM | 23.8 µM
17 | O=C(/C=C/c1cccs1)c1ccc(Cl)s1 | > 100 µM | > 100 µM | > 100 µM | – | 32.2 µM | > 100 µM | > 100 µM | > 100 µM | 47.6 µM | > 10 µM | > 100 µM | 63.2 µM | > 100 µM | > 100 µM | 37.3 µM | 59.5 µM | > 100 µM | > 100 µM | > 100 µM
18 | COc1ccc(/C(Cl)=C(\CNc2ccccn2)c2ccccc2)cc1OC | > 100 µM | > 100 µM | > 100 µM | – | > 100 µM | > 100 µM | > 100 µM | > 100 µM | > 100 µM | > 100 µM | > 100 µM | > 100 µM | > 100 µM | > 100 µM | > 100 µM | > 100 µM | > 100 µM | > 100 µM | > 100 µM
19 | O=C1c2cscc2C(=O)c2c(OCc3ccccc3)ccc(OCc3ccccc3)c21 | > 100 µM | > 100 µM | > 100 µM | > 100 µM | > 100 µM | > 100 µM | > 100 µM | > 100 µM | > 100 µM | > 100 µM | > 100 µM | > 100 µM | > 100 µM | > 100 µM | > 100 µM | > 100 µM | > 100 µM | > 100 µM | –
20 | C[N+]1(CCCC[N+]2(C)CCCCCCC2)CCCCCCC1 | > 100 µM | > 100 µM | > 100 µM | > 100 µM | > 100 µM | – | > 100 µM | > 100 µM | > 100 µM | > 100 µM | > 100 µM | > 100 µM | > 100 µM | > 100 µM | > 100 µM | > 100 µM | > 100 µM | > 100 µM | > 100 µM
21 | CCN(CC)C(=O)N[C@@H](Cc1ccccc1)C(=O)NC | > 100 µM | > 100 µM | – | > 100 µM | > 100 µM | > 100 µM | > 100 µM | > 100 µM | > 100 µM | > 100 µM | > 100 µM | > 100 µM | > 100 µM | > 100 µM | > 100 µM | > 100 µM | > 100 µM | > 100 µM | > 100 µM
